This note sets out measurements from ChEMBL document CHEMBL3585280, “2-Aminopyridines with a Truncated Side Chain To Improve Human Neuronal Nitric Oxide Synthase Inhibitory Potency and Selectivity” (J Med Chem, 2015).

Format in all cases: ADME, organism-based
Data set [1] deals with Brain. As to the kind of experiment: AUClast in BALB/c mouse brain at 2 mg/kg, iv. Particulars: in vivo.
The subject of data set [2] is Brain. As to the kind of experiment: AUClast in BALB/c mouse brain at 10 mg/kg, po. Conditions: in vivo.
Data set [3] in a line: Cmax in BALB/c mouse plasma at 2 mg/kg, iv. Details: dose 2 mg/kg, route intravenous.
Data set [4] in a line: Cmax in BALB/c mouse brain at 2 mg/kg, iv. Details: dose 2 mg/kg, route intravenous.

As to `CNCCN(C)c1cc(C#N)cc(CCc2cc(C)cc(N)n2)c1`, the results for the AUClast in data set [1] and in data set [2] were 789.07 ng·h/g and 673.67 ng·h/g, respectively. The Cmax in data set [3] was 0.472 µg/mL; in data set [4] it was 100 ng/g.

The term Cmax denotes the peak of the concentration-time curve.
